In patent US8133474B2, “Sensors for fluorescence and magnetic resonance imaging” (Massachusetts Institute of Technology, priority 2006, dated 2012):

Columns and labels:
[1] = Zinc-dependent MR relaxivity in buffered solutions; assay type: physicochemical; details: for zinc-induced change of MR signal in buffered solution: 1 mM Zn^2+, 25 mM Pipes pH 7, T1-weighted 200 μM agent, T2-weighted 500 μM agent with 100 mM KCl; for zinc-induced T2 change at high ionic strength: 100 mM KCl, buffered solution
Procedure: (§1) MRI samples prepared as described above were arrayed into microtiter plates and placed in a 40-cm-bore Avance 4.7 T MRI scanner (Bruker, Billerica, Mass.). Unused wells were filled with PBS, and imaging was performed on a 2-mm slice through the sample. A spin echo pulse sequence with multiecho acquisition was used. The TR was fixed for every acquisition, and the TE was in defined increments. For example, for TR=100 ms, TE varied from 10 to 80 ms, with a 10-ms increment. To adjust further the weight between T1 and T2, various TRs were applied and the TE increment was changed accordingly, if necessary. Data matrices of 512×128 points were acquired and zero-filled to 256 points in the second (phase encoding) dimension. Images were reconstructed and analyzed by using custom routines running in Matlab (Mathworks, Natick, Mass.).
Insertion of a paramagnetic manganese(III) ion into the porphyrin core of compound 1 rendered the resulting (DPA-C2)2-TPPS3Mn(III) complex (compound 2) an MRI contrast agent. The properties of compound 2 were investigated by using a spin echo pulse sequence to collect images at several echo times (TEs) in parallel. In some experiments, the repetition times (TRs) were varied so that both T1 and T2 could be evaluated. Multiwell plates were used for sample preparation, which allowed several conditions to be investigated in parallel. The well-studied MRI T1 agent, Mn-TPPS4, which contains a similar porphyrin platform as compound 2 but lacks a zinc-binding unit, was chosen as a reference compound.
The zinc-dependent MR relaxivity of compound 2 was first investigated in buffered solutions. Solutions of compound 2 or Mn-TPPS4 in 25 mM Pipes buffer at pH 7.0 were arrayed in microtiter plates. A spin echo pulse sequence was used to acquire an MRI image. […] Addition of 1 mM ZnCl2 to a 200 μM solution of compound 2 dissolved in 25 mM Pipes buffer at pH 7 slowed down the T1 relaxation. […] The T1 values of zinc-free and zinc-saturated solutions were determined at various concentrations of compound 2, from which T1 relaxivity (R1) values could be deduced.
The surrounding wells (not shown) were filled with PBS to maintain a homogenous magnetic field to mark the positions of the samples.
The zinc-induced T2 enhancement depended on the total concentration of compound 2.

[2] = system: intracellular zinc in HEK-293 cells; assay: Cellular MR imaging of intracellular zinc, T1 and T2 of cell pellets; assay type: cell-based; details: for T2 of cell pellet, zinc-treated samples: then 200 μM Zn^2+
Procedure: as §1
To investigate zinc-induced relaxivity changes in compound 2 inside cells, cell pellets were prepared with and without exogenously introduced zinc, and their MR images were recorded and compared. The HEK-293 cell suspension was divided equally into two flasks after a 24-h treatment with 100 μM of compound 2 or Mn-TPPS4. A 200-μM portion of zinc pyrithione was then added to one of the samples and incubated for an additional 10 min. As in the solution studies, comparisons were made by using Mn-TPPS4 as a reference compound. In addition, an untreated cell sample was prepared as a control. The cell suspensions were pelleted by centrifugation, washed, and transferred into a multiwell plate for MRI analysis. A spin echo pulse sequence was used to acquire MRI images.
T1 and T2 were determined by a series of MR images with varied TR or TE, respectively. The values reported are the average from three separate experiments with standard deviations as indicated by the horizontal bars.

[3] = Absorption spectrum in buffered neutral aqueous solution; assay type: physicochemical; details: Soret band centered at 416 nm; 50 mM Hepes/100 mM KCl, pH 7.0
Procedure: (§2) Millipore water was used to prepare all aqueous solutions. All spectroscopic measurements were performed in buffered solutions containing 50 mM of the buffering species and 100 mM KCl adjusted to the desired pH. A glass electrode (Orion, Boston, Mass.), calibrated before each use, was used to determine solution pH. Solutions of Zn^2+ were prepared from 100 mM stocks of ZnCl2 in water. Absorption spectra were recorded on a 8453A diode array spectrophotometer (Hewlett-Packard, Palo Alto, Calif.) or a Cary 50 Bio UV-visible spectrophotometer (Varian, Palo Alto, Calif.), and fluorescence spectra were obtained with a Quanta Master 4 L-format scanning spectrofluorimeter (Photon Technology International, Lawrenceville, N.J.) equipped with an LPS-220B 75-W xenon lamp and power supply, an A-1010B lamp housing with integrated igniter, a switchable 814 photon-counting/analog photomultiplier detection unit, and a MD-5020 motor driver. Samples for absorption and emission measurements were held in 1×1-cm quartz cuvettes (3.5 mL volume; Stama, Atascadero, Calif.). […] Quantum yields were determined by reference to TPPS4 [0.16 in pH=7 aqueous solution].
The spectroscopic properties of compound 1 were evaluated in buffered neutral aqueous solution (50 mM Hepes/100 mM KCl, pH 7.0). […] Excitation was provided at 418 nm for the emission spectrum, and emission was detected at 648 nm for the excitation spectrum. […]

[4] = Fluorescence metal ion selectivity; details: 100 μM metal ion, 5 μM compound, 50 mM Hepes/100 mM KCl, pH 7.0, excitation 418 nm
Procedure: as §2, with “solution]. […]” for “solution].”
Even large excesses of Na^+, K^+, Ca^2+, and Mg^2+, which are biologically relevant, potentially competing, mobile metal ions, barely perturb the fluorescence of the zinc-free and zinc-bound forms of compound 1.

Fluorescence pH profile = assay type: physicochemical; details: pH 10.1 to pH 4.5; 5 μM in 100 mM KCl; excitation 416 nm, integrated 550 to 800 nm
Procedure: The pH-sensitivity of compound 1 was then studied. In some cases, it may be advantageous to reduce fluorescence turn-on by protonation for fluorescent zinc(II) sensors, as protonation can diminish the sensitivity of the sensor to zinc by increasing the background signal intensity. […] The pH values of the solution were adjusted by adding an appropriate volume of HCl or KOH stock solution. The fluorescence spectrum was measured upon excitation at 416 nm, and the fluorescence intensity was integrated from 550 to 800 nm.

all cell lines tested = assay: Membrane permeability in cell lines; assay type: cell-based
Procedure: Suspension cultures of HEK-293 enabled production of a sizeable cell pellet, which was then plated as an adherent monolayer for fluorescence imaging studies. The monolayer cultures were subcultured five times after the initial plating, grown to 70% confluence on glass cover slips and treated with compound 1 for fluorescence imaging. The cytotoxicity of compound 1 was evaluated in these adherent HEK-293 cells by incubating them with 5 μM of compound 1 for 24 h.

[5] = system: intracellular Zn^2+ in HEK-293 cells; assay: Intracellular zinc imaging by fluorescence microscopy; assay type: cell-based; details: 5 μM 24 h, 40 μM Zn^2+/pyrithione 10 min
Procedure: The cell fluorescence imaging experiments were performed with an Axiovert 200M inverted epifluorescence microscope (Zeiss, Thomwood, N.Y.) equipped with an EM-CCD digital camera C9100 (Hamamatsu Hamamatsu City, Japan) and a MS200 XY Piezo Z stage (Applied Scientific Instruments, Eugene, Oreg.). An X-Cite 120 metal-halide lamp (EXFO, Quebec, Canada) was used as the light source. The fluorescence images were obtained by using a x63 oil immersion objective lenses and a customized optical filter (exciter: D425/50; emitter: E6001p; beamsplitter: 460dcxr; Chroma Technology, Rockingham, Vt.). The microscope was operated with Volocity software (Improvision, Lexington, Mass.).
Fixed cells were investigated by fluorescence imaging using a customized optical filter (exciter: D425/50; emitter: E6001p; beamsplitter: 460dcxr), which was designed to match the excitation and emission profiles of compound 1. The cell nuclei were costained with the blue fluorescent dye Hoechst 33258 (0.4 μM). The HEK-293 cells were incubated with 5 μM of compound 1 for 24 h before fixing. […] The insets show the corresponding bright-field images (Scale bars: 25 μm).

HEK-293 cells [6] = assay: Cytotoxicity in HEK-293 suspension cells, cell density; assay type: cell-based; details: 100 μM, 24 h
HEK-293 cells [7] = assay: Subcellular localization by manganese atomic absorption spectroscopy of cell fractions; assay type: cell-based
Procedure: Cell monolayers were grown in 75-cm plates to 70% confluence and treated with 100 μM of either 2 or Mn-TPPS4, followed by incubation for 24 h. All fractionation steps were performed at 4° C. After twice pelleting by centrifugation (500×g) and washing with PBS, cells were lysed in a low-salt buffer and incubated on ice for 15 min. After centrifugation (420×g, 5 min) the pellet was resuspended in two packed-cell volumes of lysis buffer with 20 strokes of a 27-gauge syringe needle. After centrifugation (11,000×g, 20 min), the supernatant was retained (cytosolic fraction), and the nuclei were lysed in 0.42 M salt with 10 strokes of a 17-gauge syringe needle. After centrifugation (20,000×g, 5 min), the supernatant was obtained as the nuclear fraction.
Manganese atomic absorption spectroscopic analyses of samples were performed on an Aanalyst 300 instrument equipped with an HGA-800 graphite furnace (PerkinElmer, Wellesley, Mass.). Pyrolysis was performed at 1,400° C. for 30 s, and atomization was performed at 2,200° C. for 5 s.
To confirm the membrane permeability and further investigate the subcellular localization of compound 2, the cells were lysed, and nuclear and cytosolic fractions were extracted and analyzed by atomic absorption spectroscopy (AAS).

[8] = HEK-293, 100 μM 24 h, no exogenous zinc
[9] = HEK-293, 100 μM 24 h, then 200 μM zinc pyrithione 10 min

Molecule	zinc-induced change of MR signal in buffered solution [1]	zinc-induced T2 change at high ionic strength [1]	T1 of cell pellet, absence of zinc [2, 8] [s]	T2 of cell pellet, non zinc-treated samples [2, 8] [ms]	T2 of cell pellet, zinc-treated samples ([2]; HEK-293, 100 μM 24 h) [ms]	T1 of cell pellet, presence of zinc [2, 9] [s]	extinction coefficient (ε) of Soret band [3]	selectivity of fluorescence turn-on for Zn^2+ over other metal ions [4]	fluorescence increase on acidification (Fluorescence pH profile)	membrane permeability (all cell lines tested)	change of intracellular red fluorescence upon addition of Zn^2+ [5]	cytotoxicity (cell density vs untreated control cells) (HEK-293 cells [6])	cell membrane permeability (HEK-293 cells [7]; AAS of lysed cell fractions)	Mn in cytosol (AAS) (HEK-293 cells [7]; cells treated with 100 μM, 24 h, cytosolic fraction) [mg Mn/liter]	Mn in nuclear fraction (AAS) (HEK-293 cells [7]; cells treated with 100 μM, 24 h, nuclear fraction) [mg Mn/liter]	T1 of cell pellet, zinc-free sample [2, 8] [ms]	T1 of cell pellet, zinc-containing sample [2, 9] [ms]	cell membrane permeability from relative increase in T1-weighted MR signal ([2]; HEK-293 cells, 100 μM, 24 h, TR=100 ms, TE=10 ms)
O=S(=O)([O-])c1ccc(-c2c3nc(c(-c4ccc(S(=O)(=O)[O-])cc4)c4ccc([n-]4)c(-c4ccc(S(=O)(=O)[O-])cc4)c4ccc([n-]4)c(-c4ccc(S(=O)(=O)[O-])cc4)c4nc2C=C4)C=C3)cc1.[Mn+3] [Mn-TPPS4, reference compound]	almost no change	no zinc-induced T2 change	1.1	107	94	1.0	–	–	–	–	–	–	–	–	–	–	–	–
O=S(=O)(O)c1ccc(-c2c3nc(c(-c4ccc(S(=O)(=O)O)cc4)c4ccc([nH]4)c(-c4c(NCCN(Cc5ccccn5)Cc5ccccn5)cccc4NCCN(Cc4ccccn4)Cc4ccccn4)c4nc(c(-c5ccc(S(=O)(=O)O)cc5)c5ccc2[nH]5)C=C4)C=C3)cc1 [compound 1, (DPA-C2)2-TPPS3]	–	–	–	–	–	–	250,700 M^−1·cm^−1	selective for Zn^2+ over many other monovalent and divalent metal ions	less than a factor of two	membrane-permeable	significant increase in the red fluorescence intensity	–	–	–	–	–	–	–
(DPA-C2)2-Mn(III)TPPS3 [compound 2]	lowers the MR signal intensity	zinc-induced enhancement of T2 relaxation	–	69	25.0	–	–	–	–	–	–	little cytoxicity	cell membrane-permeable	0.78	5.62	510	80	greater cell membrane permeability than Mn-TPPS4
